In patent publication US8759500B2, “Crystalline forms of a macrolide, and uses therefor” (Cempra Pharmaceuticals, Inc., priority 2010, dated 2014):
In brackets after ≈: the same amount, converted by molar mass.

Assays:
[1] = Mean intrinsic dissolution studies; assay type: physicochemical
Text: Mean intrinsic dissolution rates for exemplary batches of the two forms are shown in Table cC-2 for 3 batches of Form I (SD and % CV for one batch shown) and for Form II.

Dynamic vapor sorption = assay type: physicochemical
Protocol: The new physical form, Form I of CEM-101 is a crystalline form which may be described by its X-ray powder diffraction pattern. Peaks at approximate positions of about °2θ=8.8, 10.5, 13.2 and 18.6 are representative of this crystalline form. A more detailed analysis of the peaks is described in Tables 1-2 below. […] Water determination by Karl Fisher titration in typical lots is 0.6 to 1.1%. […] Form I of CEM-101 melts at about 200° C. by DSC analysis.
The new physical form, Form II of CEM-101 is a crystalline form which may be described by its X-ray powder diffraction pattern. Peaks at approximate positions of about °2θ=5.6, 7.9, 9.3, 11.7, 12.9 and 16.7 are representative of this crystalline form. A more detailed analysis of the peaks is described in Tables 3-4 below. Based on a single crystal X-ray determination and dynamic vapor sorption analysis, Form II appears to be a non-hygroscopic anhydrous crystalline form that melts at about 225° C. as a single endothermic event by DSC analysis. It is appreciated herein that non-hygroscopic solids, such as Form II described herein, may be advantageous in the preparation of pharmaceutical compositions. Such advantages include improved handling and stability properties in manufacturing, improved lot to lot quality control.

[2] = Stability of Form I and Form II under various storage conditions; assay type: physicochemical
Text: In each case, the test material was first placed in Primary Packaging Material (LLDPE bag within a HMHDPE/LDPE/LDPE blend bag, and then heat sealed). The Primary Packaging Material was placed in Secondary Packaging Material (HDPE drum). All other impurities were less than 1% at each time point.

[3] = Aqueous solubility in water at indicated pH; conditions: water at adjusted pH, 26 °C, thermodynamic from solid
[4] = Further oral pharmacokinetic study in female Balb/c mice, 5, 10 and 20 mg/kg; conditions: mouse, plasma; for half-life: t½
[5] = 5 mg/kg, Mean, 5 mg/kg single oral dose
[6] = 5 mg/kg, Median, 5 mg/kg single oral dose
[7] = 10 mg/kg, Mean, 10 mg/kg single oral dose
[8] = 10 mg/kg, Median, 10 mg/kg single oral dose
[9] = 20 mg/kg, Mean, 20 mg/kg single oral dose
[10] = 20 mg/kg, Median, 20 mg/kg single oral dose

CC[C@H]1OC(=O)[C@@](C)(F)C(=O)[C@H](C)[C@@H](O[C@@H]2O[C@H](C)C[C@H](N(C)C)[C@H]2O)[C@](C)(OC)C[C@@H](C)C(=O)[C@H](C)[C@H]2N(CCCCn3cc(-c4cccc(N)c4)nn3)C(=O)O[C@]12C [Form II, solithromycin]
Mean intrinsic dissolution rate ([1]; 0.1N Hydrochloric Acid): 8.8 mg/min/cm^2 | Mean intrinsic dissolution rate ([1]; Acetate buffer, pH 4.5): 2.7 mg/min/cm^2 | Mean intrinsic dissolution rate ([1]; Phosphate buffer, pH 6.8): 0.01 mg/min/cm^2 | hygroscopicity (Dynamic vapor sorption): non-hygroscopic | Assay (on hydrous basis) ([2]; 2-8° C., 3 Month): 93.4% | Chromatographic Purity ([2]; 2-8° C., 3 Month): 96.0 | Water ([2]; 2-8° C., 3 Month): 1.24% | Assay (on hydrous basis) ([2]; 2-8° C., 6 Month): 93.6% | Chromatographic Purity ([2]; 2-8° C., 6 Month): 96.8 | Water ([2]; 2-8° C., 6 Month): 1.39% | 3-Ethynylaniline ([2]; 2-8° C., 9 Month): 0.01% | Assay (on hydrous basis) ([2]; 2-8° C., 9 Month): 93.3% | Chromatographic Purity ([2]; 2-8° C., 9 Month): 96.4 | Water ([2]; 2-8° C., 9 Month): 1.38% | 3-Ethynylaniline ([2]; 2-8° C., 12 Month): 0.12% | Assay (on hydrous basis) ([2]; 2-8° C., 12 Month): 93% | Chromatographic Purity ([2]; 2-8° C., 12 Month): 96.8 | Water ([2]; 2-8° C., 12 Month): 1.37% | Assay (on hydrous basis) ([2]; 2-8° C., Initial): 93.9% | Chromatographic Purity ([2]; 2-8° C., Initial): 97.0 | Water ([2]; 2-8° C., Initial): 1.01% | Assay (on hydrous basis) ([2]; 25° C./60% RH, 3 Month): 93.6% | Chromatographic Purity ([2]; 25° C./60% RH, 3 Month): 96.0% | Water ([2]; 25° C./60% RH, 3 Month): 1.16% | Assay (on hydrous basis) ([2]; 25° C./60% RH, 6 Month): 93.7% | Chromatographic Purity ([2]; 25° C./60% RH, 6 Month): 96.7% | Water ([2]; 25° C./60% RH, 6 Month): 1.42% | 3-Ethynylaniline ([2]; 25° C./60% RH, 9 Month): 0.04% | Assay (on hydrous basis) ([2]; 25° C./60% RH, 9 Month): 93.2% | Chromatographic Purity ([2]; 25° C./60% RH, 9 Month): 96.2% | Water ([2]; 25° C./60% RH, 9 Month): 1.45% | 3-Ethynylaniline ([2]; 25° C./60% RH, 12 Month): 0.11% | Assay (on hydrous basis) ([2]; 25° C./60% RH, 12 Month): 93.0% | Chromatographic Purity ([2]; 25° C./60% RH, 12 Month): 96.1% | Water ([2]; 25° C./60% RH, 12 Month): 1.48% | Assay (on hydrous basis) ([2]; 25° C./60% RH, Initial): 93.9% | Chromatographic Purity ([2]; 25° C./60% RH, Initial): 97.0% | Water ([2]; 25° C./60% RH, Initial): 1.01% | Assay (on hydrous basis) ([2]; 40° C./75% RH, 3 Month): 93.0% | Chromatographic Purity ([2]; 40° C./75% RH, 3 Month): 95.9% | Water ([2]; 40° C./75% RH, 3 Month): 1.24% | Assay (on hydrous basis) ([2]; 40° C./75% RH, 6 Month): 93.1% | Chromatographic Purity ([2]; 40° C./75% RH, 6 Month): 96.5% | Water ([2]; 40° C./75% RH, 6 Month): 1.62% | 3-Ethynylaniline ([2]; 40° C./75% RH, 9 Month): 0.02% | Assay (on hydrous basis) ([2]; 40° C./75% RH, 9 Month): 92.5% | Chromatographic Purity ([2]; 40° C./75% RH, 9 Month): 96.2% | Water ([2]; 40° C./75% RH, 9 Month): 1.51% | 3-Ethynylaniline ([2]; 40° C./75% RH, 12 Month): 0.05% | Assay (on hydrous basis) ([2]; 40° C./75% RH, 12 Month): 92.3% | Chromatographic Purity ([2]; 40° C./75% RH, 12 Month): 97.1% | Water ([2]; 40° C./75% RH, 12 Month): 1.56% | Assay (on hydrous basis) ([2]; 40° C./75% RH, Initial): 93.9% | Chromatographic Purity ([2]; 40° C./75% RH, Initial): 97.0% | Water ([2]; 40° C./75% RH, Initial): 1.01% | change in color of the test material ([2]; during the entire study, all storage conditions): no observed change in color | solubility at 6 h ([3]; pH 1.2, simulated gastric fluid): 3640 µg/mL (≈ 4310 µM) | solubility at 6 h ([3]; pH 4, aqueous buffer): 361 µg/mL (≈ 427 µM) | solubility at 6 h ([3]; pH 7.4, aqueous buffer): 305 µg/mL (≈ 361 µM) | solubility at 6 h ([3]; pH 9.2, aqueous buffer): 331 µg/mL (≈ 392 µM) | AUC(0-t) ([4]; 5 mg/kg, AUC 0-24, Mean, 5 mg/kg single oral dose): 4690 ng·h/mL | AUC(0-t) ([4]; 5 mg/kg, AUC 0-24, Median, 5 mg/kg single oral dose): 4310 ng·h/mL | Cmax [4, 5]: 1850 ng/mL | Cmax [4, 6]: 1800 ng/mL | Tmax [4, 5]: 1.2 h | Tmax [4, 6]: 1 h | half-life [4, 5]: 1.17 h | half-life [4, 6]: 1.12 h | AUC(0-t) ([4]; 10 mg/kg, AUC 0-24, Mean, 10 mg/kg single oral dose): 7580 ng·h/mL | AUC(0-t) ([4]; 10 mg/kg, AUC 0-24, Median, 10 mg/kg single oral dose): 7590 ng·h/mL | Cmax [4, 7]: 2630 ng/mL | Cmax [4, 8]: 2420 ng/mL | Tmax [4, 7]: 1.25 h | Tmax [4, 8]: 1 h | half-life [4, 7]: 1.42 h | half-life [4, 8]: 1.53 h | AUC(0-t) ([4]; 20 mg/kg, AUC 0-24, Mean, 20 mg/kg single oral dose): 20100 ng·h/mL | AUC(0-t) ([4]; 20 mg/kg, AUC 0-24, Median, 20 mg/kg single oral dose): 21700 ng·h/mL | Cmax [4, 9]: 5360 ng/mL | Cmax [4, 10]: 5660 ng/mL | Tmax [4, 9]: 1.1 h | Tmax [4, 10]: 1 h | half-life [4, 9]: 2.46 h | half-life [4, 10]: 2.46 h
